From patent US8648113B2, “Mixture and compounds from mycelia of Antrodia camphorata and use thereof” (Simpson Biotech Co., Ltd., priority 2004, dated 2014)
Where “and” joins values, the source holds several entries; their conditions need not be identical. Equal values may be shown once. Marks after values point to notes of the source that are not given here.

Key:
[1] = test system: B16-F0 murine melanoma cells; assay: Tumor, Syngeneic, Melanoma, B16-F0 Cell in C57BL/6J mice; settings: B16-F0 in C57BL/6J mice, 2 mg/kg × 6 IP; for Survival Time, Days of Post-treatment: monitored to day 45
[2] = test system: Long Evans derived rats, carrageenan-induced paw edema; assay: Inflammation, Carrageenan in rats (hind paw edema); type: in vivo, rat; settings: 150 mg/kg PO; for Paw Volume Diff: R.P. minus L.P.; for Paw Volume L.P.: left (not injected) hindpaw; for Paw Volume R.P.: right (injected) hindpaw, 3 hours
Experimental: Hind paw edema, as a measure of inflammation, was recorded 3 hours after carrageenan administration using a plethysmometer with water cell (25 mm diameter). Reduction of hind paw edema by 30 percent or more (30%) indicates significant acute anti-inflammatory activity. […] Reduction of hindpaw edema by 30 percent or more (30%), shown in parenthesis, indicates significant acute anti-inflammatory activity. • 4. […] Anticancer Research 19: 1027-1032, 1999)

[3] = test system: LLC (Lewis lung carcinoma) cell line; assay: Cytotoxic assay, in vitro LLC tumor cell assay (SRB method); settings: for 50% Growth Inhibition (ED50): SRB method
[4] = test system: Wistar derived male or female rats; assay: Cholinergic Agonism, Central/Peripheral in rats (chewing, salivation); type: in vivo, rat; set-up: key to Peripheral: Salivation: +: exhibiting salivation; settings: 30 mg/kg IP
[5] = test system: ICR derived male mice on high fat diet; assay: Cholesterol, Serum (Total, HDL, Total/HDL Ratio), Diet-Induced in mice; type: in vivo, mouse; settings: 100 mg/kg × 3 PO
Experimental: Groups of 5 ICR derived male mice weighing 22±2 g were kept on a high fat diet (g/100 g: coconut oil, 8; cholesterol, 1.0; cholic acid, 0.3; lard 2; standard chow 88.7) for 7 days to induce hypercholesterolemia. Test substance was administered orally on days 5, 6 and 7. After fasting overnight, serum was obtained from each mouse and assayed for total cholesterol (Total), high density lipoprotein (HDL) and percent change in Total/HDL. A decrease of 20 percent or more (20%) in serum Total or increase of 20 percent or more (≧20%) in serum HDL or decrease of 40% or more (≧40%) in the Total/HDL ratio relative to vehicle treated control animals is considered significant.
Vehicle, test substance or reference positive compound was administered orally (PO) on days 5, 6 and 7 after being fed a high cholesterol diet. Twenty-four hours after the third dose, the overnight-fasted test animals were sacrificed for assessing serum total cholesterol (Total) and high density lipoprotein (HDL). Decrease of 20 percent or more (20%) in serum Total or increase of 20 percent or more (20%) in serum HDL or decrease of 40% or more (40%) in the Total/HDL ratio is considered significant. • 2. Hepatic Injury, D-Galactosamine (Wrobel et al., J. Med. Chem. 41: 1084, 1998)

[6] = Ave. of 3 rats (Tables 12 and 13: two experiments), 150 mg/kg
[7] = individual rats (Tables 12 and 13: two experiments), 150 mg/kg
[8] = 30-60 min after dosing, individual animals
[9] = positive in 2 or more of 3 = activity

CO[C@@]12[C@H](COC(N)=O)C3=C(C(=O)C(C)=C(N)C3=O)N1C[C@@H]1N[C@@H]12 [Mitomycin]
Survival Time T/C (%) [1]: 125* % | Tumor Weight T/C(%), Day 1 [1]: 100% | Tumor Weight T/C(%), Day 8 [1]: 0* % | Tumor Weight T/C(%), Day 11 [1]: 16* % | Tumor Weight T/C(%), Day 15 [1]: 27* % | Tumor Weight T/C(%), Day 18 [1]: 32* % | Tumor Weight T/C(%), Day 22 [1]: 25* % | Body Weight, Day 1 ([1]; Mean ± SEM): 21.4 ± 1.1 g | Body Weight, Day 8 ([1]; Mean ± SEM): 22.2 ± 0.8 g | Body Weight, Day 11 ([1]; Mean ± SEM): 22.0 ± 1.1 g | Body Weight, Day 15 ([1]; Mean ± SEM): 23.0 ± 1.0 g | Body Weight, Day 18 ([1]; Mean ± SEM): 24.0 ± 1.1 g | Body Weight, Day 22 ([1]; Mean ± SEM): 26.3 ± 1.9 g | Tumor Weight, Day 1 ([1]; Mean ± SEM): 0 mg | Tumor Weight, Day 8 ([1]; Mean ± SEM): 0 ± 0 mg | Tumor Weight, Day 11 ([1]; Mean ± SEM): 34 ± 15 mg | Tumor Weight, Day 15 ([1]; Mean ± SEM): 119 ± 44 mg | Tumor Weight, Day 18 ([1]; Mean ± SEM): 391 ± 142 mg | Tumor Weight, Day 22 ([1]; Mean ± SEM): 587 ± 260 mg | Survival Time, Days of Post-treatment ([1]; Mean ± SEM): 34.0 ± 4.7 days | Body Weight, Day 8 ([1]; individual mice): 20 g | Body Weight, Day 15 ([1]; individual mice): 20 g | Body Weight, Day 22 ([1]; individual mice): 30 g | Tumor Weight, Day 1 ([1]; individual mice): 0 mg | Tumor Weight, Day 8 ([1]; individual mice): 0 mg | Body Weight, Day 1 ([1]; individual mice, 2 mg/kg): 25 g and 22 g (2×) and 19 g (2×) | Body Weight, Day 8 ([1]; individual mice, 2 mg/kg): 25 g and 22 g (2×) and 21 g | Body Weight, Day 11 ([1]; individual mice, 2 mg/kg): 26 g and 22 g (2×) and 21 g and 19 g | Body Weight, Day 15 ([1]; individual mice, 2 mg/kg): 25 g (2×) and 21 g and 24 g | Body Weight, Day 18 ([1]; individual mice, 2 mg/kg): 24 g and 27 g and 22 g and 26 g and 21 g | Body Weight, Day 22 ([1]; individual mice, 2 mg/kg): 27 g (2×) and 21 g and Died | Tumor Weight, Day 11 ([1]; individual mice, 2 mg/kg): 0 mg (2×) and 64 mg and 68 mg and 41 mg | Tumor Weight, Day 15 ([1]; individual mice, 2 mg/kg): 36 mg and 136 mg and 0 mg and 213 mg and 207 mg | Tumor Weight, Day 18 ([1]; individual mice, 2 mg/kg): 256 mg and 849 mg and 0 mg and 525 mg and 327 mg | Tumor Weight, Day 22 ([1]; individual mice, 2 mg/kg): 437 mg and 1248 mg and 0 mg and 663 mg and Died | Survival Time, Days of Post-treatment ([1]; individual mice, 2 mg/kg): 45^a day (2×) and 28 day and 30 day and 22 day

CC(=O)Oc1ccccc1C(=O)O [Aspirin]
Paw Volume Diff [2, 6]: 50 ×0.01 ml and 52 ×0.01 ml | Paw Volume Diff [2, 7]: 50 ×0.01 ml and 44 ×0.01 ml and 57 ×0.01 ml and 43 ×0.01 ml and 48 ×0.01 ml and 65 ×0.01 ml | Paw Volume L.P. ([2]; Ave. of 3 rats (Tables 12 and 13: two experiments)): 103 ×0.01 ml | Paw Volume L.P. [2, 7]: 102 ×0.01 ml and 106 ×0.01 ml and 103 ×0.01 ml and 101 ×0.01 ml and 104 ×0.01 ml | Paw Volume R.P. [2, 6]: 154 ×0.01 ml and 155 ×0.01 ml | Paw Volume R.P. [2, 7]: 152 ×0.01 ml and 146 ×0.01 ml and 163 ×0.01 ml and 149 ×0.01 ml and 169 ×0.01 ml

CC(C)=CCOc1ccc(C2=C(CC(C)C)C(=O)NC2=O)cc1 [Compound 2, 3-Isobutyl-4-[4-(3-methyl-2-butenyloxy)phenyl]-1H-pyrrole-2,5-dione]
cytotoxic activity (in words) [3]: cytotoxic | 50% Growth Inhibition (ED50) [3]: 3.6 µg/mL

COc1cccc2c1C(=O)c1c(O)c3c(c(O)c1C2=O)C[C@@](O)(C(=O)CO)C[C@@H]3O[C@H]1C[C@H](N)[C@H](O)[C@H](C)O1 [Adriamycin]
50% Growth Inhibition (ED50) [3]: 0.14 µg/mL

COC(=O)C1=CCCN(C)C1 [Arecoline-HBR]
Central: Chewing [4, 8]: + (exhibiting more than 10 seconds of chewing behavior (mouth and/or tongue movements) measured cumulatively) | Peripheral: Salivation [4, 8]: + | Central: Score (positive animals of 3) [4, 9]: (3/3) | Peripheral: Score (positive animals of 3) [4, 9]: (3/3)

CC(C)(Oc1ccc(CCNC(=O)c2ccc(Cl)cc2)cc1)C(=O)O [Benzafibrate]
HDL Ave. ([5]; Ave. of 5 mice): 113 | Total (serum total cholesterol) Ave. ([5]; Ave. of 5 mice): 228 | Total/HDL Ave. ([5]; Ave. of 5 mice): 2.02 | HDL Indiv. ([5]; individual mice, 100 mg/kg): 91 and 120 and 133 and 123 and 97 | Total (serum total cholesterol) Indiv. ([5]; individual mice, 100 mg/kg): 230 and 214 and 225 and 231 and 242 | Total/HDL Indiv ([5]; individual mice, 100 mg/kg): 2.53 and 1.78 and 1.69 and 1.88 and 2.49 | HDL % Dce ([5]; relative to vehicle): (43) % | Total % Dce ([5]; relative to vehicle): (37) % | Total/HDL % Dce ([5]; relative to vehicle): (56) %
